Measured values reported in patent US11254958B1, “Metabolic engineering of E coli with thio-phosphate” (priority 2018, dated 2022).
“Also recorded” adds a separate entry of the source.

Tests used:
Type in all cases: cell-based
[1] = system: E coli K12 bacteria; assay: Agilent analyzer profile of total RNA from control and thiophosphate treated cultures
Description: (§1) E coli K12 bacteria were grown in high citrate minimal media with 5.4 g/L of thiophosphate or 2.4 g/L of Na2HPO4 for up to 12 hrs. The use of high citrate media was chosen to help lower the total amount of thiophosphate needed for growth when compared to regular M9 media (1). The media is prepared as follows: thiophosphate, 5.4 g/L; KCL 1.5 g/L; (NH4)2SO4, 2 g/L; sodium citrate 2H2O, 10 g/L. Adjust the pH to 7.5 and sterile filter the solution. Then add the following: MgSO4-7H2O, 0.2 g/L (sterilized separately as a conc. solution); glucose, 2 g/L sterilized separately by filtration). Glucose can also be sterilized by autoclaving separately. CaCl2 (11 mg/L) is also be added as needed.
Total RNA was isolated using Bioline's ISOLATE II RNA mini kit. […] The rRNA ratio (23s/16s) was at least 1.6. Note small RNAs like SS RNA were not retained under the conditions used. For rRNA depleted preparations, Ribominus (Invitrogen) was then used to deplete 23S and 16S rRNA. The ribosomal depleted RNA was then concentrated with the kit's concentration module prior to gel analysis.
To further examine this idea, an Agilent analyzer was used to analyze the profiles of total RNA from control cultures and thiophosphate treated cultures (FIG. 1). It was evident that in E. coli, there was an increase in the non-ribosomal fraction, particularly between the […] and 23S ribosomal RNAs, which was even more evident in ribosomal RNA depleted samples (FIG. 1). Quantitative analysis indicated the fraction of 16S and 23S rRNA in the profile of total RNA was depleted in TP cultures relative to controls. […] This corresponds to a reduction of 8.8%. To estimate the fold increase in mRNA that could account for such a change, one needs to know the % of total RNA that is mRNA.

[2] = system: E coli K12 bacteria; assay: Microarray analysis (Affymetrix E. coli Genome 2.0)
Description: as §1
Both Microarray and RNA seq analysis was performed. Total RNA was used for both studies. For microarray studies, raw Affymetrix CEL files (E. coli Genome 2.0) were normalized to produce probeset-level expression values for all probesets with Expression Console (version 1.4.1.46), using the Robust Multiarray Average (RMA) and Detection Above BackGround (DABG) (Irizarry R. A et al. 2003, Biostatistics 4(2): 249-64. doi:10.1093/biostatistics/4.2.249). The analysis was limited to 10,112 E. coli probesets interrogated by the array. Fold changes were computed using the R environment for statistical computing (version 2.15.1) by Boston University Microarray and Sequencing (CTSA grant #1UL1TR001430).

[3] = system: E. coli K12 and JM109 strains; assay: Morphological changes by bright field microscopy
Description: as §1
To see if any morphological changes were occurring the bacteria were examined using bright field microscopy. […] To test whether this morphology was due to a nutritional deficiency K12 cells were grown in LB broth with 2.7 g of thiophosphate per liter.
In this media, filaments were detected by 8 hrs and by 2 hrs paired bacteria could be seen, as before with minimal media. In the 8 hr sample, however, the view was more mixed compared to that seen with minimal media, as both filamentous bacteria and some shorter and more normal appearing bacteria were observed.

[4] = system: Bacillus megaterium strain ATCC 15117; assay: AICA production/secretion in fermentation with thio-phosphate
Description: Bacillus megaterium was grown using a modified minimal media. In particular, the media contained: glucose, 60 g/L; KCL 1 g/L; MgSO4 0.4 g/L; peptone, 2 g/L; adenine, 0.25 g/L; NH4CI 8 g/L, urea, 3 g/L, calcium chloride, 0.5 g/L; as well as ferrous sulfate and manganese sulfate at 0.005 g/L. Thio-phosphate was added at levels between 2-6 g/L. For controls NaH2PO4 was add at 1 g/L.
Bacillus megaterium strain ATCC 15117 (U.S. Pat. No. 3,238,110 & 3,748,232) was used to examine the increased production of AICA using thio-phosphate. Cells were cultured at 26-30° C. for 4 days with 4 g/L of thio-phosphate or normal phosphate (1 g/L). […] The cells were pelleted, and the supernatant was acidified to pH 2 to help remove unwanted amino acids. The samples were then diluted with one volume of water and bound to activated charcoal with shaking for 2 hrs. (2 grams/20 ml) at room temp. The charcoal was collected on a filter with filtration and washed with 0.01 N HCl. AICA was then eluted with a solution of ethanol/ammonium hydroxide/water at a 1:1:2 ratio using a volume equivalent to the original supernatant. The samples were then separated and analyzed on Whatman chromatography paper using a solvent mixture of 50% butanol, 15% ethanol, and 35% water. The results indicated a ˜2× fold increase AICA per volume of cells.
Histidine and tryptophan were added to fermentation reactions to enhance AICA yield by blocking the endogenous synthesis of these amino acids. […] Fermentation reactions were typically initiated with 1.5 ml of overnight growth in nutrient broth which was then diluted into 50 ml of the reaction media. […] Despite the high activity, the growth of these cells was inhibited, almost in parallel with the amount of AICA secreted.

[5] = microarray (value outside parentheses)
[6] = semi-synthetic media containing thiophosphate with amino acids added
[7] = 4 g/L thio-phosphate vs normal phosphate
[8] = twice as many starter cells, 50 mg each of his and trp

## OP(O)(O)=S [thio-phosphate]
[1]
  midpoint of the non-ribosomal RNA peak: ~2,000 NT
  reduction of 16S and 23S rRNA fraction relative to controls: 8.8%
[1]; assuming mRNA is normally 2% of the total
  fold increase in mRNA or non-ribosomal RNA relative to ribosomal RNA: 5.5 × fold
[1]; average of two replicates
  16S and 23S rRNA as fraction of total RNA: 42.5%
[2]; half-lives less than or equal to 1.4 minutes
  average fold change of 19 genes with unstable mRNAs: 1.0+/−2.8
[2]; microarray
  Dxs transcript fold enhancement: 2.5 × fold
  FabB transcript elevation: 3 ×
  TesA transcript elevation: 4 ×
  Udp transcript fold reduction: 3.2 × fold
  Upp transcript increase: 2 ×
  accA transcript elevation: 1.3
  accC transcript elevation: 3.2
  accD transcript elevation: 1.4
  adk transcript fold elevation: 1.5 × fold
  dusB transcript fold elevation: ≥ 3 × fold
  infB transcript fold elevation: 3.1 × fold
  ispD transcript fold enhancement: 2.5 × fold
  other IPP/DMAPP synthesis gene transcripts (the others) fold enhancement: ~1.3 × fold
  prsA transcript elevation: < 2 ×
  pyrF transcript fold elevation: 3.7 × fold
  rlmH transcript fold elevation: at least 3.4 × fold
  rpoS transcript fold elevation: 3 × fold
  tadA transcript fold elevation: ≥ 3 × fold
  trmA transcript fold elevation: ≥ 3 × fold
  ycih transcript fold elevation: 3.3 × fold
  yqgf transcript fold elevation: at least 3.4 × fold
[2]; [5]
  dacA transcript elevation: 3.6 × fold
  ftsI transcript elevation: 1.6 ×
  idtB transcript elevation: 2 ×
  idtC transcript elevation: 5.2 ×
[2]; microarray and RNA seq
  FabA, FabG, FabZ, FabI, FabF gene transcripts: elevated
[2]; microarray, 20 genes
  tRNA synthetases average increase: 1.24 × fold
[2]; microarray, vs control
  CspA transcript fold increase: 3.1 × fold
  nusA transcript fold increase: 2.6 × fold
[2]; platform not given
  pgsA mRNA fold enhancement: 1.9 × fold
  plsB mRNA fold enhancement: 1.9 × fold
  pssA mRNA fold enhancement: 1.9 × fold
[2]; standard deviation 1.4
  average fold change for 10,110 transcripts: −0.1
[2]; standard deviation 2.44
  average fold change of 23 mRNAs with half-lives greater than 10 minutes: 1.2
[3]; K12, LB broth with 2.7 g of thiophosphate per liter, 12 hrs
  morphology: Filamentous growth was not observed; also recorded: paired phenotype
[3]; K12, LB broth with 2.7 g of thiophosphate per liter, 12 hrs, listed as TP
  morphology: paired phenotype
[3]; K12 and JM109, minimal thiophosphate media, 12 hrs
  morphology: distinct filamentous morphology
[3]; K12 and JM109, minimal thiophosphate media, 12 hrs, listed as TP
  morphology: filamentous phenotype
[3]; K12 and JM109, thiophosphate media, 2 hrs
  morphology: appeared as pairs
[3]; [6]
  growth: good growth
  morphology: mixed with both long filamentous and shorter bacterial cells
[4]; 100 mg of histidine and tryptophan each per liter
  effect on cells by day 4: cell lysis
[4]; 4 g/L thio-phosphate
  growth recovery by day 4: 60-100 % of controls
[4]; [7]
  growth after 24 hrs: the same
  growth recovered by the third day: normal or 60% of normal levels
[4]; 4 g/L thio-phosphate vs normal phosphate (1 g/L), 26-30° C., 4 days
  fold increase AICA per volume of cells: ~2 × fold
[4]; per cell mass basis compared to normal phosphate containing culture media
  AICA levels increased: 2 ×
[4]; [8]
  cell specific yield of AICA: 5-6 × fold
  growth of cells: inhibited
